Where two headings read alike, the source gives them in different places.
How the values were obtained:
[1] = test system: SNB-19; test: NCI 60 cell line panel: SNB-19; format: cell-based, human; details: CNS cancer, TP53 null/mutant
Description: (§1) Details of the NCI 60 One Dose Screen are well known and available online.

[2] = test system: RPMI-8226; test: NCI 60 cell line panel: RPMI-8226; format: cell-based, human; details: Leukemia, TP53 null/mutant
Description: as §1

[3] = test system: NCI 60 cell line panel; test: NCI 60 cell line panel, allocation of cell lines by growth inhibition at 10 µM; format: cell-based, human
Description: as §1

[4] = test system: RXF 393; test: NCI 60 cell line panel: RXF 393; format: cell-based, human; details: Renal cancer, TP53 null/mutant
Description: as §1

[5] = test system: UO-31; test: NCI 60 cell line panel: UO-31; format: cell-based, human; details: Renal cancer, TP53 wild type
Description: as §1

[6] = test system: HOP-92; test: NCI 60 cell line panel: HOP-92; format: cell-based, human; details: NSCL, TP53 null/mutant
Description: as §1

[7] = test system: TK-10; test: NCI 60 cell line panel: TK-10; format: cell-based, human; details: Renal cancer, TP53 null/mutant
Description: as §1

[8] = test system: MDA-MB-231; test: NCI 60 cell line panel: MDA-MB-231; format: cell-based, human; details: Breast cancer, TP53 null/mutant
Description: as §1

[9] = test system: SF-295; test: NCI 60 cell line panel: SF-295; format: cell-based, human; details: CNS cancer, TP53 null/mutant
Description: as §1

[10] = test system: SK-MEL-2; test: NCI 60 cell line panel: SK-MEL-2; format: cell-based, human; details: Melanoma, TP53 null/mutant
Description: as §1

[11] = test system: SK-OV-3; test: NCI 60 cell line panel: SK-OV-3; format: cell-based, human; details: Ovarian cancer, TP53 null/mutant
Description: as §1

[12] = Pharmacokinetic study, IV in mice; format: in vivo; details: 10 mg/kg; for half-life: iv
Procedure: Blood aliquots (300–400 µL) were collected via cardiac puncture from anesthetized mice in anticoagulant coated tubes, then kept on ice and centrifuged at 2500× g for 15 min at 4 °C. The plasma was harvested and kept frozen at −80 °C. Plasma samples were processed using acetonitrile precipitation and analyzed by HPLC-MS/MS. A plasma calibration curve was generated and a reportable linear range determined, along with the lower limit of quantitation.

[13] = test system: SF-539; test: NCI 60 cell line panel: SF-539; format: cell-based, human; details: CNS cancer, TP53 null/mutant
Description: as §1

[14] = target: T1, RNR (Homo sapiens, UniProt P23921); test: RNR inhibition whole cell assay (HPLC of nucleotides from HeLa cell extracts); format: cell-based; details: 50 µM, 16 h
T1 construct: endogenous in cells; host or cells: HeLa
T1 sequence (P23921 1-792): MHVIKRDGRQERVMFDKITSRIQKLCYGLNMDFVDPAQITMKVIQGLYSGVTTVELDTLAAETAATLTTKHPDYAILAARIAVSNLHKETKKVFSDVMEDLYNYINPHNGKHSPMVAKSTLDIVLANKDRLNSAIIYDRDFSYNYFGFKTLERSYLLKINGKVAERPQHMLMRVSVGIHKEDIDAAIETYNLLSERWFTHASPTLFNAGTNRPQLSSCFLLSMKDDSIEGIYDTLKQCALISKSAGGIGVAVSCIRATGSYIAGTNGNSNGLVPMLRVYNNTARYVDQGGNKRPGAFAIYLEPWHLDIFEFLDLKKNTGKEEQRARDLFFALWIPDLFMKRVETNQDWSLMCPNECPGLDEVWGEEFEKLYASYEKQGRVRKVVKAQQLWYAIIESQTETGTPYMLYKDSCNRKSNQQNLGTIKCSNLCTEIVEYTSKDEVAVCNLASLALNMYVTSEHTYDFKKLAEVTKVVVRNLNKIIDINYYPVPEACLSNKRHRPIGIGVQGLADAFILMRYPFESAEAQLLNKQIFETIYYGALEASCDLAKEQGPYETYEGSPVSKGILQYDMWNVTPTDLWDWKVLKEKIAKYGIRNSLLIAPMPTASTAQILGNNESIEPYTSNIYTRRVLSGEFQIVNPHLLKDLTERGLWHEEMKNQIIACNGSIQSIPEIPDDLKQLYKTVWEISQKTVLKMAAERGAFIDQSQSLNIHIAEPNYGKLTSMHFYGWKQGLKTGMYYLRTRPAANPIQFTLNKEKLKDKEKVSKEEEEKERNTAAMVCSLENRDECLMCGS
T1 sequence (P31350 1-389 partner): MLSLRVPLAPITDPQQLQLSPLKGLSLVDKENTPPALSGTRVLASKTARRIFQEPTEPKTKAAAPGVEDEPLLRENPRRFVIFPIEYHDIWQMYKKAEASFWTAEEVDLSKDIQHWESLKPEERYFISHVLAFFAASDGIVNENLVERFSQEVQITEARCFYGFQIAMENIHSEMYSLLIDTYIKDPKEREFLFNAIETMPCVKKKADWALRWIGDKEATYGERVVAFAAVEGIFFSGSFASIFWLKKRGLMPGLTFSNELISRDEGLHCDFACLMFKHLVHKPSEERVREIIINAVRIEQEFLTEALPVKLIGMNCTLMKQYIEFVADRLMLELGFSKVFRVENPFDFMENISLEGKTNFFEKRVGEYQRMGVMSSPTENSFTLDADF
Description: Gemcitabine was used as a positive control.
The method used to extract and quantitate nucleotides followed previously reported procedures.

[15] = test system: DU-145; test: NCI 60 cell line panel: DU-145; format: cell-based, human; details: Prostate cancer, TP53 null/mutant
Description: as §1

[16] = target: DNMT1 (Homo sapiens, UniProt P26358); test: Western blot for DNMT1, Kasumi-1 cells; format: cell-based; parameters: cytoplasmic and nuclear protein extracts from cells; endogenous in cells; host or cells: Kasumi-1; details: 0.1 and 0.2 µM, 6 days after exposure
Chain of DNMT1 (P26358 whole entry): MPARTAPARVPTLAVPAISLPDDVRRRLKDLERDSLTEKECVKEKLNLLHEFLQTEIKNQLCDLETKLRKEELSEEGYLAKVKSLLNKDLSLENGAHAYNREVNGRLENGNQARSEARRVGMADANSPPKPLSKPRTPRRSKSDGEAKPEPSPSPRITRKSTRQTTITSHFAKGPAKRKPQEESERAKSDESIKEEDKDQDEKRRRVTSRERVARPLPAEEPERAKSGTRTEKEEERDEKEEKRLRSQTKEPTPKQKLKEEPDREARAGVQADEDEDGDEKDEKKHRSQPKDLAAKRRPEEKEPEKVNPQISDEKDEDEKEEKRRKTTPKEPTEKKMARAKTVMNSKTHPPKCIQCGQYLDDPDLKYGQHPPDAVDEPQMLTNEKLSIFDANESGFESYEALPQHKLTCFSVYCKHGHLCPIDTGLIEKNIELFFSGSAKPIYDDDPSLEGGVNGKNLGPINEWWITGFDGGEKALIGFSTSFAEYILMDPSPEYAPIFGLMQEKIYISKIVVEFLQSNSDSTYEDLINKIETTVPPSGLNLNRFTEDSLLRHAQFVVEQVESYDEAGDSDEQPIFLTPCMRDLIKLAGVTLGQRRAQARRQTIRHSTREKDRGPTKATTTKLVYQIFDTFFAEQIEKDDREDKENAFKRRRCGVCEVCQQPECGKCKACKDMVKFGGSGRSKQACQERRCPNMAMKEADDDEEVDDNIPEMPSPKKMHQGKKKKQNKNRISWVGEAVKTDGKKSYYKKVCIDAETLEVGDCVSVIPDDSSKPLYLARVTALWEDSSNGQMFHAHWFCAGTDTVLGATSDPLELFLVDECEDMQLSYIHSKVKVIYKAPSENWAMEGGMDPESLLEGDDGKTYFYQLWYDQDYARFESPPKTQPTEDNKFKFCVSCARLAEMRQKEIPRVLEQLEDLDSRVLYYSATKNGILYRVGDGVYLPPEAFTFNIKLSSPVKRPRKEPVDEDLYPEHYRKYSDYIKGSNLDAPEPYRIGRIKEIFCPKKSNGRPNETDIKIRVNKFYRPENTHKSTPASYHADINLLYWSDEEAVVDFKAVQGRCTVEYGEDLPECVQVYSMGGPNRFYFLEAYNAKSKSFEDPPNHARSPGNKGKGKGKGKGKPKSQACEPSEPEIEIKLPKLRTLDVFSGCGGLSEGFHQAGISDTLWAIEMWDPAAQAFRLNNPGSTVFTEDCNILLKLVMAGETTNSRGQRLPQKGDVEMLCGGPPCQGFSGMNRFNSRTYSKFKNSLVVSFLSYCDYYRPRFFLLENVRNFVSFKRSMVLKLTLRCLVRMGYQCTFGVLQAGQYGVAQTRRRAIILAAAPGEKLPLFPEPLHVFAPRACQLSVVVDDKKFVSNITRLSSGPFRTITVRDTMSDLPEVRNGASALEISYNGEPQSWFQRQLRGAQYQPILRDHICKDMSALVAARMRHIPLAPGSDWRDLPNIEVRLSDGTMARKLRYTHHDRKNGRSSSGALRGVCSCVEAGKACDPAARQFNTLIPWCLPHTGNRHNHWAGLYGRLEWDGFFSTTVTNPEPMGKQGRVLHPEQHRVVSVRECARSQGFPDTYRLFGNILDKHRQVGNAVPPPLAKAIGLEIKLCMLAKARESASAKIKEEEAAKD
Procedure: Cells were co-stained with Annexin-V and PI on day 2 and analyzed by flow cytometry.
Approximately 100 µg of cytoplasmic and nuclear protein extracts from cells, together with molecular weight markers, were subjected to SDS-PAGE on 4–12% gradient gels (Invitrogen, Carlsbad, CA, USA) followed by transfer to polyvinylidene fluoride membranes (Invitrogen). Blots were probed using antibodies for DNMT1 (Abcam ab16632).

[17] = test system: NCI/ADR-RES; test: NCI 60 cell line panel: NCI/ADR-RES; format: cell-based, human; details: Ovarian cancer, TP53 null/mutant
Description: as §1

[18] = test system: OVCAR-8; test: NCI 60 cell line panel: OVCAR-8; format: cell-based, human; details: Ovarian cancer, TP53 null/mutant
Description: as §1

[19] = 55 cell lines tested for both compounds

With `Nc1ncn([C@@H]2O[C@H](CO)[C@@H](O)C2(F)F)c(=O)n1` [NUC013, 5-aza-2′,2′-difluroro deoxycytidine] the “Growth (%) at 10 µM” value [1] was 58.88%, the “Growth (%) at 10 µM” value [2] was 39.24% and the “Number of cell lines with growth inhibition at 10 µM >50%” value [3, 19] was 24. The “Number of cell lines with growth inhibition at 10 µM ≤50%” value [3, 19] was 31, the “Number of cell lines with growth inhibition at 10 µM >50%” value ([3]; TP53 (Null/Mutant) cell lines) was 13 and the “Number of cell lines with growth inhibition at 10 µM ≤50%” value ([3]; TP53 (Null/Mutant) cell lines) was 27. The “Number of cell lines with growth inhibition at 10 µM >50%” value ([3]; TP53 (WT) cell lines) was 11, the “Number of cell lines with growth inhibition at 10 µM ≤50%” value ([3]; TP53 (WT) cell lines) was 4 and the “Growth (%) at 10 µM” value [4] was 44.97%. The “Growth (%) at 10 µM” value [5] was 39.00%, the “Growth (%) at 10 µM” value [6] was 34.34% and the “Growth (%) at 10 µM” value [7] was 91.13%. The “Growth (%) at 10 µM” value [8] was 79.98%, the “Growth (%) at 10 µM” value [9] was 77.93% and the “Growth (%) at 10 µM” value [10] was 104.47%. For the same compound, the “Growth (%) at 10 µM” value [11] was 71.09%, the “identification in plasma at the 6 and 24 h timepoints” value ([12]; mice, IV) was “could not be identified” and the half-life ([12]; mouse, plasma, mice, intravenous injection, read-out: half-life) was 20.1 min. For the same compound, the half-life ([12]; mouse, plasma, mouse, IV, plasma, non-compartmental, read-out: t1/2 (converted)) was 20.1 min, the “AUC Extr” value ([12]; mouse, IV, plasma) was 0.04% and the AUC(0-inf) ([12]; mouse, IV, plasma) was 11100 ng·h/mL. The AUC(0-t) ([12]; mouse, IV, plasma) was 11100 ng·h/mL, the C0 ([12]; mouse, IV, plasma) was 36900 ng/mL and the “Last time point for AUClast” value ([12]; mouse, IV, plasma) was 4 h. For the same compound, the MRT ([12]; mouse, IV, plasma) was 17.5 min, the Vd ([12]; mouse, IV, plasma, read-out: Vss) was 0.26 L/kg and the “Growth (%) at 10 µM” value [13] was 22.25%. The ADP concentration [14] was 13,845, the ATP concentration [14] was 21,335 and the CTP concentration [14] was 1279. The GTP concentration [14] was 2006, the UTP concentration [14] was 4070 and the “dATP, peak area” value [14] was 10.2 AU. The “dGDP, peak area” value [14] was 5.6 AU, the “dTDP, peak area” value [14] was 18.65 AU and the “dUTP, peak area” value [14] was 8.8 AU. The “Growth (%) at 10 µM” value [15] was 43.48%, the “DNMT1 inhibition by western blot” value [16] was “weaker than decitabine” and the “Growth (%) at 10 µM” value [17] was 42.13%. The “Growth (%) at 10 µM” value [18] was 49.95%.

— PMC5620609 (Pharmaceuticals, 2017)
